Measurements taken from patent US20180207228A1, “PEPTIDE COMBINATIONS AND USES THEREOF FOR TREATING GRASS ALLERGY” (ALK-Abelló A/S, priority 2015, published 2018).
Entries after “also recorded” stand apart in the source; their conditions may differ. Values belong to the molecule of their own block, whether it stands above or below them. Where no end group is shown, it is not given here.

Experiments:
[1] = tested on: grass allergic donor derived T cell lines (TCL-02 DK-2); experiment: Cross-reactivity of homologue peptides, proliferation on TCL02-DK2 (Study XR1); type: cell-based, human; conditions: for experimental cross-reactivity: 2 μg/ml, TCL02-DK2, 21 donors
Method: To measure the experimental cross-reactivity the proliferation assay of Example 3 was carried out on 21 grass allergic donors (TCL02-DK2). […] Cross-reactivity to Phleum pratense peptides with either close (Lolium perenne (Lol p)) or distant (Phalaris aquatica (Pha a), Cynodon dactylon (Cyn d)) species was experimentally investigated.
For analysing the cross-reactivity data, it was investigated if a donor responds to both native and homologue peptide, XY correlation plots were made where the donor responses to native peptides were plotted versus the donor responses to homologues. […] If less than five donors were responding to the parent peptides, then the data was considered to be in-conclusive, and were thus labelled with “-”. For some of the peptides the analysis was further supported by performing a Spearman r-Non Parametric test (data not shown).
Further the magnitude of T cell response from a parent peptide as defined herein and homologue response were plotted in a XY plot by using GraphPad Prism 6.
To measure the experimental cross-reactivity, the proliferation assay of Example 3 was carried out on 21 grass pollen allergic donors (TCL02-DK2, Study XR1) and 20 grass pollen allergic donors (TCL03−DK1+DK2, Study XR2). […] In Study XR1, Cross-reactivity to Phleum pratense peptides with either close (Lolium perenne-Lol p) or distant ([…]-Pha a, Cynodon dactylon-Cyn d) species was experimentally investigated. In Study XR1, 67 homologue peptides corresponding to 41 native Phleum pratense peptides were investigated together with the 41 Phleum pratense peptides at a concentration of 2 μg/ml. Similarly, study XR2 was carried out on 20 grass pollen allergic donors where donor derived TCL-03 lines were used to investigate Phleum pratense cross-reactivity to Poa pratensis (Poa p), Dactylis glomerata (Dac g), Festuca pratensis (Fes p), Paspalum notatum (Pas n), Sorghum halepense (Sor h), Lolium perenne (Lol p), Phalaris aquatica (Pha a) and Cynodon dactylon (Cyn d).

[2] = Peptide solubility by visual inspection; type: physicochemical; conditions: for Visual inspection after 60 min pH 7 / Visual inspection after centrifugation pH 7: 250 mM D-Mannitol and 25 mM sodium phosphate
Method: Water (pH 3-5) • 2. 250 mM D-Mannitol and 25 mM sodium acetate, pH 4.5 • 3. 250 mM D-Mannitol and 25 mM sodium phosphate, pH 7.0 • 4. […] Water (pH 3-5) • 2. 250 mM D-Mannitol and 25 mM sodium acetate, pH 4.5 • 3. 250 mM D-Mannitol and 25 mM sodium phosphate, pH 7.0 • 4. […] A subset of the peptides was selected as candidate peptides for a final peptide mixture. […] During the solubility studies the peptide-containing solutions were inspected visually before and after filtration for turbidity, and presence of particles/aggregates. In addition, presence of turbidity/particles/aggregates was also detected by optical density (OD) or absorbance of filtered material, but might also be detected by size-exclusion chromatography. Furthermore, Sub-visual particles may also be detected by dynamic light scattering (DLS) analysis on filtered and non-filtered peptide containing solutions. Samples were furthermore subjected to centrifugation to allow for the possible visual inspection of pelleted material.

[3] = tested on: grass pollen allergic donor derived TCL-03 lines; experiment: Extended cross-reactivity study, proliferation on TCL03 DK1+DK2 (Study XR2), scoring; type: cell-based, human; conditions: study XR2; for Cross-reactivity score, Dac g: homologue from Dac g; for Cross-reactivity score, Lol p: homologue from Lol p; for Cross-reactivity sum: scores of all species added; for Cross-reactivity/species: sum divided by the number of species measured; for Cross-reactivity score, Cyn d: homologue from Cyn d; for Cross-reactivity score, Fes p: homologue from Fes p; for Cross-reactivity score, Pha a: homologue from Pha a; for Cross-reactivity score, Poa p: homologue from Poa p
[4] = Extended solubility and short term stability study (visual, U-HPLC recovery, DLS, 90LS, UV-VIS, sum of scores); conditions: for solubility: pH 4.5
Method: For that purpose, the peptides were provided as acetate salts (produced by Innovagen® at a >10 mg scale of manufacturing). To take into account batch-to-batch variations, some peptides were tested from other batches of the manufacturer Innovagen®, as well as from another manufacturer (Almac) and from in-house production. Solubility experiments were performed on peptide in solution in concentrations ranging from 0.5 mg/mL to 3 mg/mL (dry matter)—with the following solvents: • Water • Acetate buffer, pH 4.5 (25 mM sodium acetate containing 250 mM D-Mannitol) • Phosphate buffer, pH 7.0 (25 mM sodium phosphate containing 250 mM D-Mannitol) • Glycine buffer, pH 8.5 (25 mM glycine containing 250 mM D-Mannitol)
The solubility of the peptides was initially investigated by visual inspection and U-HPLC recovery. Visual inspection included assessment of turbidity and presence of particles/aggregates of each peptide solution before and after centrifugation as well as visual inspection of pelleted material. The visual inspection were reported as “clear solution”, “very small precipitation only visible with a magnifier”, “precipitation visible/turbid solution” or “more precipitation/turbid solution”. Filtration of peptide solutions were conducted using syringe based filters containing a polyethersulfone (PES) membrane chemistry and a pore size of 0.2 μm. The amount of the peptide in the supernatant of a filtered sample was determined using U-HPLC with reverse phase chromatography and recovery were determined as described in Example 5.
Peptide solutions were investigated at a time point of 1 hour after production, but were also repeated at later time point (e.g. 24. 48 or 96 hours) to investigate the stability of the peptides.
Peptide solutions were investigated to determine the presence of turbidity/particles/aggregates by use of optical density (OD) and change in UV-VIS absorbance at a wavelength of 320 nm, of the filtrate. […] In addition or as an alternative, the amount of the peptide in the supernatant of a filtered sample was determined using U-HPLC as described above, with the exception that the recovery was determined by dividing the peak area of the filtered sample in relation to the peak area in the original solution prior to filtration. See also Example 5 for further details regarding UV-VIS, and recovery measured by U-HPLC.
The peptides were scored in relation to the outcome of the above mentioned tests: For each peptide in a given buffer and at a given concentration, a sum of test scores was calculated and the sum used to rank the peptides according to solubility: • 1. […] DLS peak 1 number 3 nm gave a score of 1, 3-10 nm gave a score of 2, 10-100 nm gave a score of 3, >100 nm gave a score of 4. • 5. 90LS at 400 nm: Intensity <450 gave a score of 1, <800 gave a score of 2, >800 gave a score of 3. • 6. UV-VIS change in absorbance at 320 nm within 24 hours: 0.01 gave a score of 1, ≤0.05 gave a score of 2, 0.0.2 gave a score of 3 and >0.2 gave a score of 4.

[5] = tested on: allergen specific T cells; experiment: T cell proliferation assay (72 h) on donor derived T cell lines (TCL02/TCL03); type: cell-based, human
In short: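 Overlapping 20-mer and selected 15-mer grass allergen peptides were screened for proliferation using TCL02 (day 24) or TCL03 (day 34) lines. Lines came from grass-allergic donors' CD8-depleted PBMCs, primed with natural allergen mix and expanded with irradiated autologous or allogeneic APCs, PHA-P 0.5 μg/ml and rIL-2.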

[6] = tested on: grass pollen allergic donor derived T cell lines; experiment: Dose response titration in T cell proliferation assay; type: cell-based, human
Method: The dose-response relationship was tested by measuring the percentage of donor response (i.e. the percentage of donor coverage) in concentrations of 2.0, 0.1, 0.005 and 0.00025 μg/ml for the peptide combinations and in concentrations of 2.0, 0.2, 0.02 and 0.002 μg/ml for single peptides. The donor response was determined using T cell proliferation data as described in Example 3.
Relative magnitude value for a peptide or a peptide combination was calculated as percentage of highest T cell response to an allergen or a mix, by the same donor. In this way, allergen or peptide combination with highest magnitude of T cell response gets a value of 100 and T cell response magnitude of remaining peptides/peptide combinations are normalized or calculated relative to 100, for example Relative magnitude=100*(T cell response magnitude of peptide or combination/Highest T cell response in a donor). Relative magnitude were calculated mainly on Phl p 1. For donors non reactive to Phl p 1, Phl p 5 was used as reference
The donors were selected by seeking to maximize the HLA class II diversity in the donor cohort.
For peptide combinations, two set-ups were used:
A) Concentrations of 2.0, 0.1, 0.005 and 0.00025 μg/ml were tested on a set of T cell lines derived from 9 grass pollen allergic donors (same experiment as the data shown in FIG. 7b.).
B) Concentrations of 2.0, 0.066, 0.0022 and 0.00007 μg/ml were used on a set of T cell lines derived from 18 grass pollen allergic donors (same set as the donors used for testing of single peptides as described above).
Relative magnitude value for a peptide or a peptide combination was calculated as percentage of highest T cell response to an allergen or a mix, by the same donor. In this way, allergen or peptide combination with highest magnitude of T cell response gets a value of 100 and T cell response magnitude of remaining peptides/peptide combinations are normalized or calculated relative to 100, for example Relative magnitude=100*(T cell response magnitude of peptide or combination/Highest T cell response in a donor). […]

[7] = 3 mg/mL, acetate salt, non-filtered
[8] = 3 mg/mL, acetate salt, non-filtered, after centrifugation

Molecule: GFKAALAAAAGVPPADKYRT-OH [peptide 230]
experimental cross-reactivity [1]: showed cross-reactivity

solubility, 1st round of solubility screening [2]: soluble
Visual inspection after 60 min pH 4.5 ([2]; 3 mg/mL, acetate salt, non-filtered, 250 mM D-Mannitol and 25 mM sodium acetate, pH 4.5): + particles
Visual inspection after centrifugation pH 4.5 ([2]; 3 mg/mL, acetate salt, non-filtered, 250 mM D-Mannitol and 25 mM sodium acetate, pH 4.5, after centrifugation): Ok
Visual inspection after 60 min pH 7 [2, 7]: particles +
Visual inspection after centrifugation pH 7 [2, 8]: ++
solubility in all the test samples (concentrations and pH tested), all solubility tests [4]: good solubility
solubility in aqueous solutions and short-term stability [4]: sufficiently soluble
solubility [4]: acceptable solubility
Molecule: GSDPKKLVLNIKYTRPGDSL-OH [peptide 217]
experimental cross-reactivity [1]: showed cross-reactivity
Cross-reactivity score, Dac g ([3]; score 0 to 7): 1
Cross-reactivity score, Lol p ([3]; score 0 to 7): 5
Cross-reactivity sum [3]: 6
Cross-reactivity/species [3]: 3

Molecule: EAKYDAYVATLSEALRIIAG-OH [peptide 233]
experimental cross-reactivity [1]: showed cross-reactivity; also recorded: good cross reactivity

Molecule: TKKGNVWEVKSSKPLVGPFN-OH [peptide 219]
experimental cross-reactivity [1]: showed cross-reactivity

Molecule: KDKWIELKESWGAIWRIDTP-OH [peptide 210]
experimental cross-reactivity [1]: showed cross-reactivity

solubility, 1st round of solubility screening [2]: soluble
Visual inspection after 60 min pH 7 [2, 7]: tread +
Visual inspection after centrifugation pH 7 [2, 8]: +
solubility in all the test samples (concentrations and pH tested), all solubility tests [4]: good solubility
solubility in aqueous solutions and short-term stability [4]: sufficiently soluble
solubility [4]: acceptable solubility
Molecule: AGELELQFRRVKSKYPEGTK-OH [peptide 207]
T cell response in % of the donors tested ([5]; single peptide): ~40%
solubility in aqueous solutions [2]: surprisingly good solubility in aqueous solutions
Cross-reactivity score, Cyn d ([3]; score 0 to 7): 0
Cross-reactivity score, Dac g ([3]; score 0 to 7): 3
Cross-reactivity score, Fes p ([3]; score 0 to 7): 6
Cross-reactivity score, Lol p ([3]; score 0 to 7): 6
Cross-reactivity score, Pas n ([3]; homologue from Pas n, score 0 to 7): 0.5
Cross-reactivity score, Pha a ([3]; score 0 to 7): 6
Cross-reactivity score, Poa p ([3]; score 0 to 7): 1
Cross-reactivity sum [3]: 22.5
Cross-reactivity/species [3]: 3.2

Molecule: HGSEEWEPLTKKGNVWEVKS-OH [compound 218]
experimental cross-reactivity [1]: showed cross-reactivity

Molecule: AYRTAATAANAAPAN-OH [compound 353]
Cross-reactivity score ([1]; homologue of peptide 241 (Phl p 5), Table 51, based on results from Study XR1 (score 5 upgraded to 7)): 7
cross-reactivity of homologue ([1]; homologues of peptide 241, Study XR1): very high cross-reactivity

solubility, 1st round of solubility screening [2]: soluble
solubility in all the test samples (concentrations and pH tested), all solubility tests [4]: good solubility
solubility in aqueous solutions and short-term stability [4]: sufficiently soluble
solubility [4]: acceptable solubility
Molecule: YHFDLSGHAFGAMAKKGDEQ-OH [peptide 205]
experimental cross-reactivity [1]: showed cross-reactivity
Cross-reactivity score, Cyn d ([3]; score 0 to 7): 2
Cross-reactivity score, Dac g ([3]; score 0 to 7): 7
Cross-reactivity score, Fes p ([3]; score 0 to 7): 7
Cross-reactivity score, Lol p ([3]; score 0 to 7): 7
Cross-reactivity score, Pha a ([3]; score 0 to 7): 6
Cross-reactivity score, Poa p ([3]; score 0 to 7): 3
Cross-reactivity score, Sor h ([3]; homologue from Sor h, score 0 to 7): 7
Cross-reactivity sum [3]: 39
Cross-reactivity/species [3]: 5

Molecule: GRGSGSSFEIKSTKPEASSG-OH [compound 202]
experimental cross-reactivity [1]: showed cross-reactivity

Molecule: CC[C@H](C)[C@H](NC(=O)[C@@H](NC(=O)[C@H](CC(=O)O)NC(=O)[C@H](CCC(=O)O)NC(=O)[C@H](C)NC(=O)[C@H](CCC(=O)O)NC(=O)[C@@H](N)[C@@H](C)O)C(C)C)C(=O)N1CCC[C@H]1C(=O)N[C@@H](CCC(=O)O)C(=O)NCC(=O)N[C@@H](Cc1c[nH]c2ccccc12)C(=O)N[C@@H](CCCCN)C(=O)N[C@@H](C)C(=O)N[C@@H](CC(=O)O)C(=O)N[C@H](C(=O)N[C@@H](CO)C(=O)N[C@@H](Cc1ccc(O)cc1)C(=O)N[C@@H](CCC(=O)O)C(=O)N[C@@H](CO)C(=O)N[C@@H](CCCCN)C(=O)O)[C@@H](C)O [peptide 213]
experimental cross-reactivity [1]: showed cross-reactivity

Molecule: CC[C@H](C)[C@H](NC(=O)[C@H](C)NC(=O)[C@H](CCCCN)NC(=O)[C@@H](NC(=O)[C@H](CC(C)C)NC(=O)[C@H](C)NC(=O)[C@H](C)NC(=O)[C@H](CCC(=O)O)NC(=O)[C@H](Cc1ccccc1)NC(=O)[C@@H](NC(=O)[C@H](C)NC(=O)[C@H](Cc1ccc(O)cc1)NC(=O)[C@H](CCCCN)NC(=O)[C@@H](NC(=O)[C@H](CCC(=O)O)NC(=O)[C@@H]1CCCN1C(=O)[C@@H](N)CCCCN)C(C)C)C(C)C)[C@@H](C)O)C(=O)N[C@H](C(=O)O)[C@@H](C)O [peptide 142]
average relative magnitude ([5]; reference peptides of WO2010/089554, proliferation only): around 8
donor coverage, dose response of single peptides ([6]; 0.002 μg/ml, 25 donor derived T cell lines): ~35%
average relative magnitude calculated over all donors ([6]; single peptides, FIG. 21): in the same range
